# Test results taken from PubChem BioAssay (NCI).
#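 A five-concentration, 48-hour dose response in 96-well plates underlies each endpoint, interpolated linearly between surrounding concentrations. At the GI50, growth is halved. The concentration for full growth arrest is given as TGI.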
# Assays:
# Assay in all cases: NCI tumour cell line growth inhibition, 48 h
# 786-0 renal = test system: 786-0 renal
# A498 renal = test system: A498 renal
# A549 NSCLC = test system: A549 NSCLC
# ACHN renal = test system: ACHN renal
# BT-549 breast = test system: BT-549 breast
# CAKI-1 renal = test system: CAKI-1 renal
# CCRF-CEM leukemia = test system: CCRF-CEM leukemia
# COLO 205 colon = test system: COLO 205 colon
# DU-145 prostate = test system: DU-145 prostate
# HCC-2998 colon = test system: HCC-2998 colon
# HCT-116 colon = test system: HCT-116 colon
# HCT-15 colon = test system: HCT-15 colon
# HL-60(TB) leukemia = test system: HL-60(TB) leukemia
# HOP-62 NSCLC = test system: HOP-62 NSCLC
# HOP-92 NSCLC = test system: HOP-92 NSCLC
# HS 578T breast = test system: HS 578T breast
# HT29 colon = test system: HT29 colon
# IGROV1 ovarian = test system: IGROV1 ovarian
# K-562 leukemia = test system: K-562 leukemia
# KM12 colon = test system: KM12 colon
# LOX IMVI melanoma = test system: LOX IMVI melanoma
# M14 melanoma = test system: M14 melanoma
# MALME-3M melanoma = test system: MALME-3M melanoma
# MCF7 breast = test system: MCF7 breast
# MDA-MB-231 breast = test system: MDA-MB-231 breast
# MDA-MB-435 = test system: MDA-MB-435
# MOLT-4 leukemia = test system: MOLT-4 leukemia
# NCI-H226 lung = test system: NCI-H226 lung
# NCI-H23 lung = test system: NCI-H23 lung
# NCI-H460 lung = test system: NCI-H460 lung
# NCI-H522 lung = test system: NCI-H522 lung
# NCI/ADR-RES ovarian = test system: NCI/ADR-RES ovarian
# OVCAR-3 ovarian = test system: OVCAR-3 ovarian
# OVCAR-4 ovarian = test system: OVCAR-4 ovarian
# OVCAR-5 ovarian = test system: OVCAR-5 ovarian
# OVCAR-8 ovarian = test system: OVCAR-8 ovarian
# PC-3 prostate = test system: PC-3 prostate
# RPMI-8226 leukemia = test system: RPMI-8226 leukemia
# RXF 393 renal = test system: RXF 393 renal
# SF-268 CNS = test system: SF-268 CNS
# SF-295 CNS = test system: SF-295 CNS
# SF-539 CNS = test system: SF-539 CNS
# SK-MEL-2 melanoma = test system: SK-MEL-2 melanoma
# SK-MEL-28 melanoma = test system: SK-MEL-28 melanoma
# SK-MEL-5 melanoma = test system: SK-MEL-5 melanoma
# SK-OV-3 ovarian = test system: SK-OV-3 ovarian
# SN12C renal = test system: SN12C renal
# SNB-19 CNS = test system: SNB-19 CNS
# SNB-75 CNS = test system: SNB-75 CNS
# SR leukemia = test system: SR leukemia
# SW-620 colon = test system: SW-620 colon
# T-47D breast = test system: T-47D breast
# TK-10 renal = test system: TK-10 renal
# U251 CNS = test system: U251 CNS
# UACC-257 melanoma = test system: UACC-257 melanoma
# UACC-62 melanoma = test system: UACC-62 melanoma
# UO-31 renal = test system: UO-31 renal
# EKVX NSCLC = test system: EKVX NSCLC
smiles,measurement,setting,value
Fc1ccc(-c2c(-c3ccncc3)[nH]c3cccnc23)cc1,GI50,786-0 renal,> 25 µM
same,TGI,786-0 renal,> 25 µM
same,GI50,A498 renal,> 14.8 µM
same,TGI,A498 renal,> 25 µM
same,GI50,A549 NSCLC,17 µM
same,TGI,A549 NSCLC,> 25 µM
same,GI50,ACHN renal,1.63 µM
same,TGI,ACHN renal,> 25 µM
same,GI50,BT-549 breast,> 25 µM
same,TGI,BT-549 breast,> 25 µM
same,GI50,CAKI-1 renal,7.43 µM
same,TGI,CAKI-1 renal,> 25 µM
same,GI50,CCRF-CEM leukemia,> 25 µM
same,TGI,CCRF-CEM leukemia,> 25 µM
same,GI50,COLO 205 colon,18.6 µM
same,TGI,COLO 205 colon,> 25 µM
same,GI50,DU-145 prostate,> 22.7 µM
same,TGI,DU-145 prostate,> 25 µM
same,GI50,HCC-2998 colon,> 25 µM
same,TGI,HCC-2998 colon,> 25 µM
same,GI50,HCT-116 colon,> 25 µM
same,TGI,HCT-116 colon,> 25 µM
same,GI50,HCT-15 colon,15.4 µM
same,TGI,HCT-15 colon,> 25 µM
same,GI50,HL-60(TB) leukemia,> 25 µM
same,TGI,HL-60(TB) leukemia,> 25 µM
same,GI50,HOP-62 NSCLC,> 25 µM
same,TGI,HOP-62 NSCLC,> 25 µM
same,GI50,HOP-92 NSCLC,22.3 µM
same,TGI,HOP-92 NSCLC,> 25 µM
same,GI50,HS 578T breast,> 25 µM
same,TGI,HS 578T breast,> 25 µM
same,GI50,HT29 colon,8.18 µM
same,TGI,HT29 colon,> 25 µM
same,GI50,IGROV1 ovarian,8.45 µM
same,TGI,IGROV1 ovarian,> 25 µM
same,GI50,K-562 leukemia,> 23.1 µM
same,TGI,K-562 leukemia,> 25 µM
same,GI50,KM12 colon,> 25 µM
same,TGI,KM12 colon,> 25 µM
same,GI50,LOX IMVI melanoma,> 21.7 µM
same,TGI,LOX IMVI melanoma,> 25 µM
same,GI50,M14 melanoma,> 25 µM
same,TGI,M14 melanoma,> 25 µM
same,GI50,MALME-3M melanoma,> 21.9 µM
same,TGI,MALME-3M melanoma,> 25 µM
same,GI50,MCF7 breast,13.8 µM
same,TGI,MCF7 breast,> 25 µM
same,GI50,MDA-MB-231 breast,> 25 µM
same,TGI,MDA-MB-231 breast,> 25 µM
same,GI50,MDA-MB-435,> 25 µM
same,TGI,MDA-MB-435,> 25 µM
same,GI50,MOLT-4 leukemia,> 25 µM
same,TGI,MOLT-4 leukemia,> 25 µM
same,GI50,NCI-H226 lung,> 15.2 µM
same,TGI,NCI-H226 lung,> 25 µM
same,GI50,NCI-H23 lung,> 25 µM
same,TGI,NCI-H23 lung,> 25 µM
same,GI50,NCI-H460 lung,18.3 µM
same,TGI,NCI-H460 lung,> 25 µM
same,GI50,NCI-H522 lung,> 19.8 µM
same,TGI,NCI-H522 lung,> 25 µM
same,GI50,NCI/ADR-RES ovarian,> 25 µM
same,TGI,NCI/ADR-RES ovarian,> 25 µM
same,GI50,OVCAR-3 ovarian,> 22.2 µM
same,TGI,OVCAR-3 ovarian,> 25 µM
same,GI50,OVCAR-4 ovarian,> 25 µM
same,TGI,OVCAR-4 ovarian,> 25 µM
same,GI50,OVCAR-5 ovarian,> 25 µM
same,TGI,OVCAR-5 ovarian,> 25 µM
same,GI50,OVCAR-8 ovarian,> 25 µM
same,TGI,OVCAR-8 ovarian,> 25 µM
same,GI50,PC-3 prostate,> 25 µM
same,TGI,PC-3 prostate,> 25 µM
same,GI50,RPMI-8226 leukemia,> 25 µM
same,TGI,RPMI-8226 leukemia,> 25 µM
same,GI50,RXF 393 renal,> 20.4 µM
same,TGI,RXF 393 renal,> 25 µM
same,GI50,SF-268 CNS,> 25 µM
same,TGI,SF-268 CNS,> 25 µM
same,GI50,SF-295 CNS,> 25 µM
same,TGI,SF-295 CNS,> 25 µM
same,GI50,SF-539 CNS,> 25 µM
same,TGI,SF-539 CNS,> 25 µM
same,GI50,SK-MEL-2 melanoma,> 25 µM
same,TGI,SK-MEL-2 melanoma,> 25 µM
same,GI50,SK-MEL-28 melanoma,> 25 µM
same,TGI,SK-MEL-28 melanoma,> 25 µM
same,GI50,SK-MEL-5 melanoma,24.3 µM
same,TGI,SK-MEL-5 melanoma,> 25 µM
same,GI50,SK-OV-3 ovarian,10.6 µM
same,TGI,SK-OV-3 ovarian,> 25 µM
same,GI50,SN12C renal,18.8 µM
same,TGI,SN12C renal,> 25 µM
same,GI50,SNB-19 CNS,> 25 µM
same,TGI,SNB-19 CNS,> 25 µM
same,GI50,SNB-75 CNS,> 17.8 µM
same,TGI,SNB-75 CNS,> 25 µM
same,GI50,SR leukemia,> 18.9 µM
same,TGI,SR leukemia,> 25 µM
same,GI50,SW-620 colon,> 25 µM
same,TGI,SW-620 colon,> 25 µM
same,GI50,T-47D breast,13.4 µM
same,TGI,T-47D breast,> 25 µM
same,GI50,TK-10 renal,3.02 µM
same,TGI,TK-10 renal,> 25 µM
same,GI50,U251 CNS,> 25 µM
same,TGI,U251 CNS,> 25 µM
same,GI50,UACC-257 melanoma,> 25 µM
same,TGI,UACC-257 melanoma,> 25 µM
same,GI50,UACC-62 melanoma,12 µM
same,TGI,UACC-62 melanoma,> 25 µM
same,GI50,UO-31 renal,3.2 µM
same,TGI,UO-31 renal,> 25 µM
O=C(Nc1ccccc1)c1cc2cc(CCl)ccc2oc1=O,TGI,786-0 renal,> 100 µM
same,TGI,A498 renal,26.1 µM
same,TGI,A549 NSCLC,> 100 µM
same,TGI,ACHN renal,31.1 µM
same,TGI,BT-549 breast,> 100 µM
same,TGI,CAKI-1 renal,> 100 µM
same,TGI,CCRF-CEM leukemia,> 100 µM
same,TGI,COLO 205 colon,> 100 µM
same,TGI,DU-145 prostate,> 100 µM
same,TGI,EKVX NSCLC,> 100 µM
same,TGI,HCC-2998 colon,> 100 µM
same,TGI,HCT-116 colon,> 100 µM
same,TGI,HCT-15 colon,> 100 µM
same,TGI,HL-60(TB) leukemia,> 100 µM
same,TGI,HOP-62 NSCLC,> 100 µM
same,TGI,HOP-92 NSCLC,> 100 µM
same,TGI,HS 578T breast,63.9 µM
same,TGI,HT29 colon,> 100 µM
same,TGI,IGROV1 ovarian,> 100 µM
same,TGI,K-562 leukemia,> 100 µM
same,TGI,KM12 colon,> 100 µM
same,TGI,LOX IMVI melanoma,> 100 µM
same,TGI,M14 melanoma,> 100 µM
same,TGI,MALME-3M melanoma,> 100 µM
same,TGI,MCF7 breast,82.9 µM
same,TGI,MDA-MB-231 breast,> 100 µM
same,TGI,MDA-MB-435,> 100 µM
same,TGI,MOLT-4 leukemia,> 100 µM
same,TGI,NCI-H226 lung,> 100 µM
same,TGI,NCI-H23 lung,> 100 µM
same,TGI,NCI-H460 lung,> 100 µM
same,TGI,NCI-H522 lung,> 100 µM
same,TGI,NCI/ADR-RES ovarian,> 100 µM
same,TGI,OVCAR-3 ovarian,> 100 µM
same,TGI,OVCAR-4 ovarian,> 100 µM
same,TGI,OVCAR-5 ovarian,> 100 µM
same,TGI,OVCAR-8 ovarian,> 100 µM
same,TGI,PC-3 prostate,> 100 µM
same,TGI,RPMI-8226 leukemia,> 100 µM
same,TGI,RXF 393 renal,> 100 µM
same,TGI,SF-268 CNS,> 100 µM
same,TGI,SF-295 CNS,> 100 µM
same,TGI,SK-MEL-2 melanoma,> 100 µM
same,TGI,SK-MEL-28 melanoma,> 100 µM
same,TGI,SK-MEL-5 melanoma,> 100 µM
same,TGI,SK-OV-3 ovarian,> 100 µM
same,TGI,SN12C renal,> 100 µM
same,TGI,SNB-19 CNS,> 100 µM
same,TGI,SNB-75 CNS,> 100 µM
same,TGI,SR leukemia,> 100 µM
same,TGI,SW-620 colon,> 100 µM
same,TGI,T-47D breast,> 100 µM
same,TGI,TK-10 renal,> 100 µM
same,TGI,U251 CNS,> 100 µM
same,TGI,UACC-257 melanoma,> 100 µM
same,TGI,UACC-62 melanoma,32.8 µM
same,TGI,UO-31 renal,> 100 µM
